Measurements taken from patent US11292759B2, “Hydroxycitric acid metal heterocyclic compounds with covalent characteristics” (GLYKON TECHNOLOGIES GROUP, LLC, priority 2018, dated 2022).

What was measured:
[1] = target: T1, ATP citrate lyase (EC 4.1.3.8) (Homo sapiens, UniProt P53396); details: cited from earlier work
T1 sequence (P53396 1-1101): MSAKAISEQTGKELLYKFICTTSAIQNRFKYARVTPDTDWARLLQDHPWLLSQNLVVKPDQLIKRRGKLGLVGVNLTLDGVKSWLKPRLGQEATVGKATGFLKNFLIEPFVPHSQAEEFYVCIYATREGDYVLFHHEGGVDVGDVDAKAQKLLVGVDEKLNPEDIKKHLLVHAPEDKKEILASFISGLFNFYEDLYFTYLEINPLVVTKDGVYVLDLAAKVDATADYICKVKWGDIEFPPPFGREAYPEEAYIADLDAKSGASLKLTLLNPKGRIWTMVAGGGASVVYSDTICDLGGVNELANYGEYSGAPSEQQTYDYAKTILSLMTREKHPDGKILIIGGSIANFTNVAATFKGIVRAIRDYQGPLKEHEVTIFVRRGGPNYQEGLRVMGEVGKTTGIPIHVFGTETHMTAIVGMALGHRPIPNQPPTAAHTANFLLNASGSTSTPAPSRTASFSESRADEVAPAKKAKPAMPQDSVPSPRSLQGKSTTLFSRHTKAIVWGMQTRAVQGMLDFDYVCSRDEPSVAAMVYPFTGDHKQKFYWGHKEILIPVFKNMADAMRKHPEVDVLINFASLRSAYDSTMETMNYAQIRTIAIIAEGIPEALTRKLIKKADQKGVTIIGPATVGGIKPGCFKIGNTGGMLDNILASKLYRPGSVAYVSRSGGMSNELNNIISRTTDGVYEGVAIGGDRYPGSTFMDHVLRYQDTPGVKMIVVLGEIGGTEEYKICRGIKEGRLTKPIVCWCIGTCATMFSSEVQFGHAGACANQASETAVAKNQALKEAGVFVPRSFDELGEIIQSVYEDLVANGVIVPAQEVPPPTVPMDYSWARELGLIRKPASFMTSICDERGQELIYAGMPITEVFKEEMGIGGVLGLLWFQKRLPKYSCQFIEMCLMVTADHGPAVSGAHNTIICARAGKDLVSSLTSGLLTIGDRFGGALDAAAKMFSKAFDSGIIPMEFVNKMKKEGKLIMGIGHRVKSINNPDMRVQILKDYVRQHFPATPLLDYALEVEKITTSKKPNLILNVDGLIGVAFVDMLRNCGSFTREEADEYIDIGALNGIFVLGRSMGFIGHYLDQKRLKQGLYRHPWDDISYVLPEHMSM

[2] = cited from earlier work
[3] = test system: osteoporosis and calcification; experiment: Example 13: comparison of bimetal regimes in two subjects; format: in vivo, human; design: key to Treatment performance: ++: very good performance; +−: good but slight complaint
Method: Subject I: a person, 40 kg (cited in Example 11, above)
Subject II: a person; 72 kg
Treatment: A. Mixture 25% KCa HCA+75% KMg HCA bimetals (100-200 mg)
Treatment B: Only KMg HCA but not KCa HCA was used.

Osteoporosis = experiment: Example 14: comparison of KCaHCA and/or KMgHCA compositions in one subject; format: in vivo, human; details: 200 mg doses, after switch from experiment 1 regimen
Method: • Subject: (cited as Example 12, above) • • Problem: Osteoporosis • Treatment: Materials were consumed 3 times a day after meals. • Experiment 1. Blending 150 mg KMgHCA.8H2O+50 mg KCaHCA.3H2O • A 200 mg mixture of KCaHCA (25%) and KMgHCA (75%) prepared according to the subject methods was used. The actual percentage of calcium was (40/338)×25%=2.96%. Since KCaHCA.3H2O was used the percentage of magnesium in the composition was (24/412)×75%=4.37%. Since KMgHCA.8H2O was used, the ratio Ca:Mg=0.15:0.36 in mmol. • Experiment 2. 200 mg KMgHCA.8H2O • Experiment 3.

[4] = test system: de novo lipogenesis (DNL); experiment: De novo lipogenesis in rats (literature); format: in vivo; details: for a 70 kg human being
Text: Dosages of various HCA compositions found to be effective are quite large, indeed beyond the normal range for pharmaceutical products, with efficacy that is highly variable. […] A later study found a significant, yet limited effect after 7 days of a diet designed specifically to induce de novo lipogenesis in humans. (Physiol Behav. 2006 Jul. 30; 88(4-5): 371-81). See also, Nutr Metab (Lond). 2005 Sep. 13; 2:23.

[5] = test system: de novo lipogenesis (DNL); details: obese subjects, 6 g HCA/day for 5 days; cited from earlier work
[6] = Conductivity of solutions (HACH Conductivity/TDS meter); format: physicochemical; details: Concentration 0.3 mmol/l in demineralized water, no additive
Text: The structure of the subject compounds (e.g., as described herein) can be deduced using a conductance meter to observe the extent of dissociate of the first and/or second metals from the compounds. In an experiment described below equimolar samples and comparative electrolyte conductance to K-acetate solution as a standard, data may be obtained which is characteristic of electrolyte binary conductants. […] The KMgHCA solution in water may have a pH 8-10 depending on the concentration. Under this condition, the heterocyclic anion formed will tend toward a stable form rather than an ionizable one.
Several experiments investigating the electrical conductivities of solutions of KMgHCA, KZnHCA and KMnHCA are performed. The equipment used is HACH Conductivity/TDS meter, P/N=4460-00.
Materials: KMgHCA.4H2O, KZnHCA.2H2O, KMnHCA.2H2O are prepared using methods described herein. KC2H3O2 and […] was obtained from Merck. H2O used was demineralized water.
General procedure: All the HCA compounds and Acetate were weighed and placed in a volumetric flask and dissolved with demineralized water to one liter solution and then they were tested the conductivity (EC).

O=C(O)CC(O)(C(=O)O)C(O)C(=O)O (single isomer, unassigned; (-)) [(−)-HCA, (−)-hydroxycitric acid]
inhibition of ATP citrate lyase [1]: potent inhibitor

O=C(O)CO [glycolic acid]
pKa [2]: approx. 3.83

O=C([O-])CC(O)(C(=O)[O-])C(O)C(=O)[O-].[K+].[Mg+2] (stereo not drawn) [KMgHCA]
Treatment performance ([3]; Patient II (72 kg)): +−
reduction of symptoms ([3]; Subject II): partial reduction of symptoms
patient's condition observed during treatment (Osteoporosis): slight difficult to walk

O=C(O)CC(O)(C(=O)O)C(O)C(=O)O (stereo not drawn) [HCA, Hydroxycitric acid]
effective dose extrapolated from rats [4]: approximately 4.5 g/day
inhibition of DNL / promotion of fatty acid oxidation [5]: failed to inhibit DNL or to promote fatty acid oxidation

CC(=O)[O-].[K+] [KC2H3O2, K-acetate]
E. C (μS/cm) [6]: 56.06 μS/cm

CC(=O)[O-].CC(=O)[O-].O.O.O.O.[Mg+2] [Mg(CH3COO)2•4H2O]
E. C (μS/cm) [6]: 32.3 μS/cm
